In ChEMBL document CHEMBL1131175, “Use of papain as a model for the structure-based design of cathepsin K inhibitors: crystal structures of two papain-inhibitor complexes demonstrate binding to S'-subsites” (J Med Chem, 1998):

Molecular target: T1, Papain (Carica papaya, UniProt P00784)
T1 sequence (P00784 whole entry): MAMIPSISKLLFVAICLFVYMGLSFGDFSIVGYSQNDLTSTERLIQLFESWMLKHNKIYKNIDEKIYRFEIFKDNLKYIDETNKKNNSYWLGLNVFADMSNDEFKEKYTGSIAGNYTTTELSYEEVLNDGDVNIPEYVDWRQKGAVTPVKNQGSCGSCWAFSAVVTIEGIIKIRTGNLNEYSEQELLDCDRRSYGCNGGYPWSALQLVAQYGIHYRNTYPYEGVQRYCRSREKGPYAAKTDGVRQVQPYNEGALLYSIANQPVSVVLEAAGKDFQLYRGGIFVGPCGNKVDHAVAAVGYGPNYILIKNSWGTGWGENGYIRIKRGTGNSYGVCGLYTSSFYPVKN
Assay: Inhibitory activity measured against papain.
Details: read-out: Ki app

- Ki: 10 µM
Structure (SMILES): CC(C)C[C@H](NC(=O)OCc1ccccc1)C(=O)NCC(=O)CNC(=O)[C@H](CC(C)C)NC(=O)OCc1ccccc1
